Reference: PubChem BioAssay (NCI)
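These data come from cells grown in 96-well plates and exposed to compound for 48 hours at five concentrations. TGI denotes the concentration required for complete inhibition of growth.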

Columns and labels:
Test in all cases: NCI-60 cell line screen, 48 h
[1] = test system: HOP-92 NSCLC
[2] = test system: UO-31 renal
[3] = test system: U251 CNS
[4] = test system: HCC-2998 colon
[5] = test system: SNB-19 CNS
[6] = test system: UACC-257 melanoma
[7] = test system: SF-268 CNS
[8] = test system: HOP-62 NSCLC
[9] = test system: SK-OV-3 ovarian
[10] = test system: DU-145 prostate

Row | Compound | TGI [1] | TGI [2] | TGI [3] | TGI [4] | TGI [5] | TGI [6] | TGI [7] | TGI [8] | TGI [9] | TGI [10]
1 | C/C(=N\N=C(N)N)c1c(C(=O)OCCCCCCOC(=O)c2nc3sccn3c2/C(C)=N/N=C(N)N)nc2sccn12 | > 100 µM | > 100 µM | > 100 µM | > 100 µM | > 100 µM | > 100 µM | > 100 µM |  |  | 
2 | CC(=O)N(C(C)=O)n1c(Cc2ccc(Cl)cc2)nn(C(C)=O)c1=O |  | > 100 µM | > 100 µM | > 100 µM | > 100 µM |  | > 100 µM | > 100 µM | > 100 µM | > 100 µM
3 | Cc1ccc(Nc2nc(=O)[nH]c(=O)[nH]2)cc1N | > 100 µM |  | > 100 µM | > 100 µM | > 100 µM | > 100 µM | > 100 µM | > 100 µM | > 100 µM | > 100 µM
4 | CCCCN(CCCC)C(=NCc1ccccc1)NC#N | 33.4 µM | 25.3 µM | 35.7 µM | 49.7 µM | 54.2 µM | 67.5 µM | 60.3 µM | 55.5 µM | 70.6 µM | 
5 | CC1=NN(C(=O)CC(=O)Nc2cccc(Cl)c2)C(=O)C1N=Nc1ccc(S(N)(=O)=O)cc1 (stereo not drawn) | > 100 µM | > 100 µM | > 100 µM | > 100 µM | > 100 µM | > 100 µM | > 100 µM | > 100 µM | > 100 µM | 
6 | O=C1c2cc(Cl)ccc2-n2c(noc2=O)C2CSCN12 (stereo not drawn) |  | > 100 µM | > 100 µM | > 100 µM | > 100 µM | > 100 µM | > 100 µM | > 100 µM | > 100 µM | > 100 µM
7 | C=C[C@]1(C)CC[C@]2(C)C(CC[C@@]3(C)C2C[C@H](O)[C@H](O)[C@@]3(C)O)C1 (stereo partly drawn) |  | > 100 µM | > 100 µM | > 100 µM | > 100 µM | > 100 µM | > 100 µM | > 100 µM | > 100 µM | > 100 µM
8 | CSc1c(C(C)=O)c(O)n(-c2ccc(Cl)cc2)c(=O)c1C#N |  | 84.6 µM | > 100 µM | > 100 µM | > 100 µM | > 100 µM | > 100 µM |  | > 100 µM | > 100 µM
9 | Cc1ccc(-c2cc(-c3ccc(Cl)cc3)nc(/N=C3\C(=O)N(CN4CCCCC4)c4ccc(Cl)cc43)n2)cc1 | 51.2 µM |  | 76.2 µM | 29.7 µM | 34.7 µM | 71.1 µM | 40.3 µM | 98.2 µM | > 100 µM | > 100 µM
10 | O=C(C[C@@H]1NCCC[C@H]1O)Cn1cnc2cc(Br)c(Cl)cc2c1=O | 0.11 µM | 0.422 µM | 0.256 µM | 0.352 µM | 0.484 µM |  | 0.61 µM | 1.01 µM | 0.813 µM | 0.0919 µM
11 | O=[N+]([O-])c1ccc2nc3ccc([N+](=O)[O-])cn3c2c1 | > 100 µM | > 100 µM | > 100 µM |  | > 100 µM | > 100 µM | > 100 µM | 39.1 µM | > 100 µM | > 100 µM
12 | O=C(c1cccs1)N(C(=S)N1CCN(c2ccccc2)CC1)c1ccccc1 | > 100 µM | > 100 µM | > 100 µM |  | > 100 µM | > 100 µM | > 100 µM | > 100 µM | > 100 µM | 
